Experimental data taken from patent US6812229B1, “Carbamate derivative and agricultural/horticultural fungicide” (Kumiai Chemical Industry Co., Ltd., priority 1999, dated 2004).

Test system: Septoria nodorum
Assay: Test for preventive effect on Septoria leaf blotch of wheat
Type: in vivo
Conditions: wheat seedlings (Norin-61-go), two-leaf stage, 50 ppm active ingredient, 10 ml per pot, evaluated 10 days after inoculation with Septoria nodorum
Excerpt: [table] 10 Wheat seeds (variety: Norin-61-go) were sown in each plastic pot having a diameter of 6 cm, and grown in a greenhouse. […] Then, the seedlings were inoculated with Septoria nodorum […] controlled in a greenhouse. 10 Days after the inoculation, the total diseased area of the first leaves in each pot was observed and evaluated on the basis of the standards shown in Table 21.

Row | SMILES | Evaluation (total diseased area of the first leaves)
1 | COC(=O)NCc1cc(C(C)=NOCc2cccc(C)n2)ccc1Cl (single isomer, unassigned) [A-286] | A (No diseased area)
2 | COC(=O)NCc1cc(C(C#N)=NOCc2ccccc2)ccc1Cl [A-7] | A (No diseased area)
3 | COC(=O)NCc1cc(C(C#N)=NOCc2ccccc2Cl)ccc1Cl [A-8] | B (Diseased area of less than 5%)
4 | COC(=O)NCc1cc(C(C#N)=NOCc2ccccc2)ccc1C [A-20] | B (Diseased area of less than 5%)
5 | COC(=O)NCc1cc(C(C#N)=NOCc2ccccc2Cl)ccc1C [A-21] | A (No diseased area)
6 | CCCCON=C(C)c1ccc(Cl)c(CNC(=O)OC)c1 [A-52] | A (No diseased area)
7 | CCC(C)ON=C(C)c1ccc(Cl)c(CNC(=O)OC)c1 (stereo not drawn) [A-53] | A (No diseased area)
8 | COC(=O)NCc1cc(C(C)=NOCC(C)C)ccc1Cl [A-54] | A (No diseased area)
9 | COC(=O)NCc1cc(C(C)=NOCC2CC2)ccc1Cl [A-56] | B (Diseased area of less than 5%)
10 | COC(=O)NCc1cc(C(C)=NOCC(F)(F)F)ccc1Cl [A-70] | A (No diseased area)
11 | COC(=O)NCc1cc(C(C)=NOc2ccccc2)ccc1Cl [A-73] | A (No diseased area)
12 | COC(=O)NCc1cc(C(C)=NOCc2ccccc2OC)ccc1Cl [A-93] | A (No diseased area)
13 | COC(=O)NCc1cc(C(C)=NOCc2cccc(OC)c2)ccc1Cl [A-94] | A (No diseased area)
14 | COC(=O)NCc1cc(C(C)=NOCc2ccc(OC)cc2)ccc1Cl [A-95] | A (No diseased area)
15 | COC(=O)NCc1cc(C(C)=NOCc2cccc(C#N)c2)ccc1Cl [A-102] | A (No diseased area)
16 | COC(=O)NCc1cc(C(C)=NOCc2ccc(C#N)cc2)ccc1Cl [A-103] | B (Diseased area of less than 5%)
17 | CCON=C(CC)c1ccc(Cl)c(CNC(=O)OC)c1 [A-111] | A (No diseased area)
18 | COC(=O)NCc1cc(C(C)=NOCc2cccc(OC)c2)cc(C)c1Cl [A-157] | A (No diseased area)
19 | COC(=O)NCc1cc(C(C)=NOCc2ccc(OC)cc2)cc(C)c1Cl [A-158] | A (No diseased area)
20 | COC(=O)NCc1cc(C(C)=NOCc2cccc(C(F)(F)F)c2)cc(C)c1Cl [A-159] | A (No diseased area)
21 | COC(=O)NCc1cc(C(C)=NOCc2ccc(C(F)(F)F)cc2)cc(C)c1Cl [A-160] | B (Diseased area of less than 5%)
22 | COC(=O)NCc1cc(C(C)=NOCC=C(Cl)Cl)ccc1Cl [A-185] | A (No diseased area)
23 | CC=CCON=C(C)c1ccc(Cl)c(CNC(=O)OC)c1 [A-189] | A (No diseased area)
24 | C=CCCON=C(C)c1ccc(Cl)c(CNC(=O)OC)c1 [A-198] | A (No diseased area)

Row | SMILES | Evaluation (total diseased area of the first leaves)
25 | COC(=O)NCc1cc(C(C)=NOCC=Cc2ccccc2)ccc1Cl [A-201] | A (No diseased area)
26 | COC(=O)NCc1cc(C(C)=NOCc2ccccc2)ccc1Cl [A-206] | B (Diseased area of less than 5%)
27 | COC(=O)NCc1cc(C(C)=NOCc2ccccc2Cl)ccc1Cl [A-207] | A (No diseased area)
28 | COC(=O)NCc1cc(C(C)=NOCc2cccc(Cl)c2)ccc1Cl [A-208] | B (Diseased area of less than 5%)
29 | COC(=O)NCc1cc(C(C)=NOC(C)c2ccccc2)ccc1Cl (stereo not drawn) [A-216] | A (No diseased area)
30 | COC(=O)NCc1cc(C(C)=NOCc2ccccc2OC(F)(F)F)ccc1Cl [A-217] | A (No diseased area)
31 | COC(=O)NCc1cc(C(C)=NOCc2cccc(OC(F)(F)F)c2)ccc1Cl [A-218] | A (No diseased area)
32 | COC(=O)NCc1cc(C(C)=NOCc2ccccc2C#N)ccc1Cl [A-220] | A (No diseased area)
33 | COC(=O)NCc1cc(C(C)=NOCC2OCCO2)ccc1Cl [A-241] | B (Diseased area of less than 5%)
34 | COC(=O)NCc1cc(C(C)=NOCc2ccc3ccccc3c2)ccc1Cl [A-248] | B (Diseased area of less than 5%)
35 | CCCCCCCON=C(C)c1ccc(Cl)c(CNC(=O)OC)c1 [A-251] | A (No diseased area)
36 | COC(=O)NCc1cc(C(C)=NOCc2cccc(Cl)c2Cl)ccc1Cl [A-252] | A (No diseased area)
37 | COC(=O)NCc1cc(C(C)=NOCc2cc(Cl)ccc2Cl)ccc1Cl [A-254] | A (No diseased area)
38 | COC(=O)NCc1cc(C(C)=NOCc2ccc(Cl)c(Cl)c2)ccc1Cl [A-256] | A (No diseased area)
39 | COC(=O)NCc1cc(C(C)=NOCc2cc(Cl)cc(Cl)c2)ccc1Cl [A-257] | A (No diseased area)
40 | COC(=O)NCc1cc(C(C)=NOCc2cc(C)ccc2C)ccc1Cl [A-258] | B (Diseased area of less than 5%)
41 | COC(=O)NCc1cc(C(C)=NOCc2cccc([N+](=O)[O-])c2)ccc1Cl [A-266] | B (Diseased area of less than 5%)
42 | COC(=O)NCc1cc(C(C#N)=NOCCc2ccccc2)ccc1Cl [A-277] | B (Diseased area of less than 5%)
43 | COC(=O)NCc1cc(C(C)=NOCc2cccc(C(=O)OC)c2)ccc1Cl [A-278] | B (Diseased area of less than 5%)
44 | COC(=O)NCc1cc(C(C)=NOCc2cc(C)cc(C)c2)ccc1Cl [A-279] | B (Diseased area of less than 5%)
45 | COC(=O)NCc1cc(C(C)=NOCc2cccc(Cl)n2)ccc1Cl [A-285] | A (No diseased area)
46 | CCC(=NOCC(C)=NOC)c1ccc(Cl)c(CNC(=O)OC)c1 [A-293] | A (No diseased area)
47 | COC(=O)NCc1cc(C(C)=NOCc2ccccc2Cl)ccc1C [A-294] | B (Diseased area of less than 5%)
48 | COC(=O)NCc1cc(C(C)=NOCc2ccccc2C)ccc1C [A-295] | B (Diseased area of less than 5%)

Row | SMILES | Evaluation (total diseased area of the first leaves)
49 | CCC(=NOCc1ccccc1Cl)c1ccc(Cl)c(CNC(=O)OC)c1 [A-296] | A (No diseased area)
50 | CCC(=NOCc1ccccc1C(F)(F)F)c1ccc(Cl)c(CNC(=O)OC)c1 [A-297] | B (Diseased area of less than 5%)
51 | CCC(=NOCc1ccccc1)c1ccc(Cl)c(CNC(=O)OC)c1 [A-303] | A (No diseased area)
52 | CCC(=NOCc1cccc(OC)c1)c1ccc(Cl)c(CNC(=O)OC)c1 [A-304] | A (No diseased area)
53 | CCC(=NOCc1ccccn1)c1ccc(Cl)c(CNC(=O)OC)c1 [A-305] | A (No diseased area)
54 | COC(=O)NCc1cc(C(C)=NOCc2ncccc2C)ccc1Cl [A-306] | A (No diseased area)
55 | COC(=O)NCc1cc(C(C)=NOC(C)c2ccccc2Cl)ccc1Cl (stereo not drawn) [A-309] | B (Diseased area of less than 5%)
56 | COC(=O)NCc1cc(C(C)=NOC(C)c2cccc(Cl)c2)ccc1Cl (stereo not drawn) [A-310] | A (No diseased area)
57 | COC(=O)NCc1cc(C(C)=NOC(C)c2ccc(Cl)cc2)ccc1Cl (stereo not drawn) [A-311] | A (No diseased area)
58 | COC(=O)NCc1cc(C(C)=NOC(C)c2cccc(OC)c2)ccc1Cl (stereo not drawn) [A-312] | A (No diseased area)
59 | COC(=O)NCc1cc(C(C)=NOC(C)c2cccc(C(F)(F)F)c2)ccc1Cl (stereo not drawn) [A-313] | A (No diseased area)
60 | COC(=O)NCc1cc(C(C)=NOCc2ccccc2C(F)(F)F)ccc1C [A-314] | A (No diseased area)
61 | COC(=O)NCc1cc(C(C)=NOCc2cccc(OC)c2)ccc1C [A-315] | A (No diseased area)
62 | COC(=O)N(Cc1cccc(OC)c1)Cc1cc(C(C)=NOCc2cccc(OC)c2)ccc1C [A-322] | A (No diseased area)
63 | COC(=O)NCc1cc(C(C)=NOCc2ccccc2)ccc1F [A-323] | A (No diseased area)
64 | COC(=O)NCc1cc(C(C)=NOCc2ccccc2F)ccc1F [A-324] | A (No diseased area)
65 | COC(=O)NCc1cc(C(C)=NOCc2ccccc2Cl)ccc1F [A-325] | A (No diseased area)
66 | COC(=O)NCc1cc(C(C)=NOCc2ccccc2Br)ccc1F [A-326] | A (No diseased area)
67 | COC(=O)NCc1cc(C(C)=NOCc2ccccc2C)ccc1F [A-327] | A (No diseased area)
68 | COC(=O)NCc1cc(C(C)=NOCc2ccccc2C(F)(F)F)ccc1F [A-328] | A (No diseased area)
69 | COC(=O)NCc1cc(C(C)=NOCc2cccc(OC)c2)ccc1F [A-329] | A (No diseased area)
70 | COC(=O)NCc1cc(C(C)=NOCc2ccccn2)ccc1F [A-330] | B (Diseased area of less than 5%)
71 | COC(=O)NCc1cc(C(C)=NOCc2ccccn2)ccc1C [A-333] | A (No diseased area)
72 | COC(=O)NCc1cc(C(C)=NOCc2ccc(C)cn2)ccc1Cl [A-334] | A (No diseased area)
